Measured values from ChEMBL document CHEMBL1148536, “Safrole oxide induces apoptosis by activating caspase-3, -8, and -9 in A549 human lung cancer cells” (Bioorg Med Chem Lett, 2006).
Active and inactive are the calls of the source.

Key:
Assay type in all cases: functional, cell-based
A549 [1] = assay: Effect on caspase 9 activation to initiate apoptosis in A549 human lung cancer cell line
A549 [2] = assay: Effect on caspase 3 activation to initiate apoptosis in A549 human lung cancer cell line
Caspase-8 (Homo sapiens) = Caspase-8 (Homo sapiens) (UniProt Q14790); assay: Effect on caspase 8 activation to initiate apoptosis in A549 human lung cancer cell line

Measured: Activity

Chain of Caspase-8 (Homo sapiens) (Q14790 217-374 limits assumed): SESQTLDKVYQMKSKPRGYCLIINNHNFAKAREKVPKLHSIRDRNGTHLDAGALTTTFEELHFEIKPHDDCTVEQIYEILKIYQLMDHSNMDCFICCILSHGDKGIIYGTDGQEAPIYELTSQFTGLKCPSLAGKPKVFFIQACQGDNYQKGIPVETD
Chain of Caspase-8 (Homo sapiens) (Q14790 385-479 limits assumed): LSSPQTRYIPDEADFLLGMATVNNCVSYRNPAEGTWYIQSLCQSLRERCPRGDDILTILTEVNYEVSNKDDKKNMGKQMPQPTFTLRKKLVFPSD

c1cc2c(cc1CC1CO1)OCO2 (stereo not drawn)
active: all assays above
